Assay results from ChEMBL document CHEMBL6074643, “Harnessing dual-mode RIPK1 ligands for cross-species anti-necroptosis inhibitor compounds” (Bioorg Med Chem Lett, 2024).
The source made the active and inactive calls. The rule behind the calls is not given here.

Assays:
[1] = target: T1, Receptor-interacting serine/threonine-protein kinase 1 (Homo sapiens, UniProt Q13546); assay: Inhibition of human RIPK1 by ADP-Glo kinase assay
T1 sequence (Q13546 whole entry): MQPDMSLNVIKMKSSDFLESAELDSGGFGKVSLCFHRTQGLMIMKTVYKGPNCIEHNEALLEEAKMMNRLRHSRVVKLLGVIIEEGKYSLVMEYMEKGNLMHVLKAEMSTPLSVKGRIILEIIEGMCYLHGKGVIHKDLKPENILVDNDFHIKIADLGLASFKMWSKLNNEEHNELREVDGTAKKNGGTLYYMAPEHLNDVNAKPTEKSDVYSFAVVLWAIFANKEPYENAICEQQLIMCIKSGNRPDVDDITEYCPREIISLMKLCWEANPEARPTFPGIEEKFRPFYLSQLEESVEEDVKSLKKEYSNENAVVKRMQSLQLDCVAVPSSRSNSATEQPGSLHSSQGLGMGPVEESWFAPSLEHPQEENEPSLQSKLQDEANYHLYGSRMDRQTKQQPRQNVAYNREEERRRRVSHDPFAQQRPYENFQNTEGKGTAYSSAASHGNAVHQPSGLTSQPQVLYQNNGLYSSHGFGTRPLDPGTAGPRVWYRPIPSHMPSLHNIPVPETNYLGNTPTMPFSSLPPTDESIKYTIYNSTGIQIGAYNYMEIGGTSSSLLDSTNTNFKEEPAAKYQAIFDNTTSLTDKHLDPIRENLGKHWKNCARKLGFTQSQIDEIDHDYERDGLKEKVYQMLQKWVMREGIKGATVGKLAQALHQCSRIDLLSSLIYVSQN

[2] = Intrinsic clearance in human liver microsomes measured per mg protein; assay type: ADME, Microsome; conditions: read-out: CLH
[3] = Intrinsic clearance in mouse liver microsomes measured per mg protein; assay type: ADME, Microsome; conditions: read-out: CLH
[4] = Plasma concentration in non-fasted NMRI mouse at 10 mg/kg, po measured after 0.5 hrs by HPLC-MS analysis; assay type: ADME, organism-based
[5] = Plasma concentration in non-fasted NMRI mouse at 10 mg/kg, po measured after 2 hrs by HPLC-MS analysis; assay type: ADME, organism-based
Mus musculus = assay: In vivo inhibition of RIPK1 in TNF-alpha-induced acute hypothermia NMRI mouse model assessed as decrease in TNF-alpha-induced severe core body temperature loss at 30 mg/kg, po administered 15 mins prior to TNF-alpha challenge and measured at 90 mins interval for 6 hrs; assay type: functional, organism-based; conditions: time 375.0 min

Structure (SMILES) | Ki [1] | microsomal CLint [2] | microsomal CLint [3] | concentration at 0.5 h [4] | concentration at 2 h [5] | inhibition (Mus musculus)
CN1C(=O)C(C(=O)Nc2cn(Cc3ccccc3)cn2)CCc2cc(Br)ccc21 (configuration not stated) | 363 nM | 31.1 µL/min/mg | 176 µL/min/mg |  |  | 
CN1C(=O)C(C(=O)Nc2cn(Cc3ccccc3)cn2)CCc2cc(C#CC3(O)COC3)ccc21 (configuration not stated) | 191 nM | 18.2 µL/min/mg | 42.2 µL/min/mg |  |  | 
CN1C(=O)C(C(=O)Nc2cn(Cc3ccccc3)cn2)CCc2ccc(C#CC3CC3)cc21 (configuration not stated) | 28.8 nM | 66.5 µL/min/mg | 300 µL/min/mg |  |  | 
CN1C(=O)C(C(=O)Nc2cn(Cc3ccccc3)cn2)CCc2cc(C#CC(C)(C)O)ccc21 (configuration not stated) | 251 nM | 6.6 µL/min/mg | 29.4 µL/min/mg |  |  | 
CN1C(=O)C(C(=O)Nc2cn(Cc3ccccc3)cn2)CCc2ccc(C#CC3(C)COC3)cc21 (configuration not stated) | 28.2 nM | 124 µL/min/mg | 238 µL/min/mg |  |  | 
CN1C(=O)C(C(=O)Nc2cn(Cc3ccccc3)cn2)CCc2ccc(C#CC3(O)COC3)cc21 (configuration not stated) | 38 nM | 44.4 µL/min/mg | 128 µL/min/mg |  |  | 
CN1C(=O)[C@H](C(=O)Nc2cn(Cc3ccccc3)cn2)CCc2ccc(C#CC(C)(C)O)cc21 | 398 nM | 32.7 µL/min/mg | 202 µL/min/mg |  |  | 
CN1C(=O)C(C(=O)Nc2cn(Cc3ccccc3)cn2)CCc2ccc(C#CC3CCOCC3)cc21 (configuration not stated) | 22.4 nM | 106 µL/min/mg | 234 µL/min/mg |  |  | 
COC(C)(C)C#Cc1ccc2c(c1)N(C)C(=O)C(C(=O)Nc1cn(Cc3ccccc3)cn1)CC2 (configuration not stated) | 25.7 nM | 194 µL/min/mg | 210 µL/min/mg |  |  | 
CC#Cc1ccc2c(c1)N(C)C(=O)C(C(=O)Nc1cn(Cc3ccccc3)cn1)CC2 (configuration not stated) | 35.5 nM | 105 µL/min/mg | 312 µL/min/mg |  |  | 
CN1C(=O)C(C(=O)Nc2cn(Cc3ccccc3)cn2)CCc2ccc(Br)cc21 (configuration not stated) | 87.1 nM | 75.7 µL/min/mg | 211 µL/min/mg |  |  | 
CN1C(=O)C(C(=O)Nc2cn(Cc3ccccc3)cn2)CCc2ccc(C#CC(C)(C)O)cc21 (racemic) | 58.9 nM | 26.5 µL/min/mg | 158 µL/min/mg |  |  | 
CN1C(=O)[C@@H](C(=O)Nc2cn(Cc3ccccc3)cn2)CCc2ccc(C#CC(C)(C)O)cc21 | 11.5 nM | 7.6 µL/min/mg | 33 µL/min/mg | 1340 nM | 329 nM | Active
CC(C)C#Cc1ccc2c(c1)N(C)C(=O)C(C(=O)Nc1cn(Cc3ccccc3)cn1)CC2 (configuration not stated) | 75.9 nM | 99 µL/min/mg | 693 µL/min/mg |  |  | 
CN1C(=O)[C@@H](NC(=O)c2nnc(Cc3ccccc3)[nH]2)COc2cccnc21 [ECLITASERTIB] | 2 nM |  |  |  |  | 
CN1C(=O)C(C(=O)Nc2cn(Cc3ccccc3)cn2)CCc2ccc(C#CC(C)(C)N)cc21 (configuration not stated) | 66.1 nM | 21.1 µL/min/mg | 50.8 µL/min/mg |  |  | 
CC(=O)NC(C)(C)C#Cc1ccc2c(c1)N(C)C(=O)C(C(=O)Nc1cn(Cc3ccccc3)cn1)CC2 (configuration not stated) | 27.5 nM | 7.7 µL/min/mg | 29 µL/min/mg |  |  | 
